Data published in the Deep4Chem optical property database.
Each block holds one molecule with its values, some of them ahead of it.

Assay: solvent given as SMILES

Compound: N#Cc1ccc(/C=C/c2ccc(C=C(c3ccccc3)c3ccccc3)cc2)cc1
- absorption maximum (in C1CCOC1): 366 nm

Compound: O=Cc1ccc(-c2ccc(O)c(-c3nc4ccccc4s3)c2)o1
- absorption maximum (in CCO): 341 nm

Compound: CC1(C)c2ccccc2N(c2ccc3c(c2)c2ccccc2c2nc4ccccc4nc32)c2ccccc21
- absorption maximum (in Cc1ccccc1): 382 nm

Compound: CCC1=C(C)C(=O)n2c1cc1c(C)c(CC)c(C)n1c2=O
- absorption maximum (in CC#N): 423 nm
- absorption maximum (in CC(C)=O): 422 nm
- absorption maximum (in CO): 428 nm
- absorption maximum (in CS(C)=O): 428 nm
- absorption maximum (in ClC(Cl)Cl): 432 nm
- absorption maximum (in c1ccccc1): 428 nm

Compound: CN(C)c1ccc(/C=C/c2nc3ccccc3o2)cc1
- absorption maximum (in C1CCCCC1): 380 nm
- absorption maximum (in CO): 390 nm

Compound: CC(C)(C)c1cc(C#Cc2ccc3c(C#Cc4cc(C(C)(C)C)cc(C(C)(C)C)c4)cc4c5cc(C#Cc6cc(C(C)(C)C)cc(C(C)(C)C)c6)ccc5c(C#Cc5cc(C(C)(C)C)cc(C(C)(C)C)c5)cc4c3c2)cc(C(C)(C)C)c1
- absorption maximum (in ClCCl): 416 nm

Compound: CCCC1=Cc2nc1ccc1[nH]c(cc1CCOC)c1nc(ccc3[nH]c2cc3CCC)C(CCOC)=C1
- absorption maximum (in Cc1ccccc1): 638 nm

Compound: CC1(C)OB(c2cc3ccc4cc(B5OC(C)(C)C(C)(C)O5)cc5ccc(c2)c3c45)OC1(C)C
- absorption maximum (in Cc1ccccc1): 398 nm

Compound: CCN(CC)c1ccc2c(c1)OC1=[N+](c3ccc(I)cc3)[B-](F)(F)n3c(nc4ccccc43)C1=C2
- absorption maximum (in ClCCl): 496 nm

Compound: O=C(c1ccc(-n2c3ccccc3c3ccccc32)cc1)c1ccc(-n2c3ccccc3c3ccccc32)cc1
- absorption maximum (in Cc1ccccc1): 340 nm

Compound: COc1ccc(C2=C3C(C)=CC(C)=[N+]3[B-](F)(F)n3c(C)cc(C)c32)cc1
- absorption maximum (in Cc1ccccc1): 504 nm

Compound: O=Cc1ccc2nc(C#Cc3ccc(N(c4ccc(C#Cc5nc6ccc(C=O)cc6s5)cc4)c4ccc(C#Cc5nc6ccc(C=O)cc6s5)cc4)cc3)sc2c1
- absorption maximum (in Cc1ccccc1): 421 nm

Compound: CCC1=C(C)C2=C(c3c(C)cc(C)nc3-c3cccs3)c3c(C)c(CC)c(C)n3[B-](F)(F)[N+]2=C1C
- absorption maximum (in C1CCCCC1): 532 nm
- absorption maximum (in C1CCOC1): 532 nm
- absorption maximum (in C1COCCO1): 533 nm
- absorption maximum (in CC#N): 530 nm
- absorption maximum (in CCCCCC): 531 nm
- absorption maximum (in CCO): 531 nm
- absorption maximum (in CCOC(C)=O): 531 nm
- absorption maximum (in CCOCC): 530 nm
- absorption maximum (in CN(C)C=O): 532 nm
- absorption maximum (in CS(C)=O): 534 nm
- absorption maximum (in Cc1ccccc1): 533 nm
- absorption maximum (in ClC(Cl)(Cl)Cl): 534 nm
- absorption maximum (in ClC(Cl)Cl): 535 nm

Compound: COc1ccc(N(c2ccccc2)c2ccccc2)cc1
- absorption maximum (in Cc1ccccc1): 299 nm

Compound: CCn1c2ccccc2c2cc(/C=C/c3cc(/C=C/c4ccc5c(c4)c4ccccc4n5CC)[n+](CCCS(=O)(=O)[O-])c(/C=C/c4ccc5c(c4)c4ccccc4n5CC)c3)ccc21
- absorption maximum (in C1CCOC1): 464 nm
- absorption maximum (in CC#N): 458 nm
- absorption maximum (in CC(C)=O): 462 nm
- absorption maximum (in Cc1ccccc1): 466 nm

Compound: COC(=O)/C(C#N)=c1\s/c(=c2/s/c(=C(/C#N)C(=O)OC)c3cc(-c4ccc(OC)cc4)sc23)c2sc(-c3ccc(OC)cc3)cc12
- absorption maximum (in Cc1ccccc1): 628 nm

Compound: O=Cc1c(O)c(-c2nc3ccccc3s2)cc2ccccc12
- absorption maximum (in C1CCOC1): 352 nm
- absorption maximum (in CC#N): 349 nm
- absorption maximum (in CC(C)=O): 352 nm
- absorption maximum (in CCO): 349 nm
- absorption maximum (in CCOC(C)=O): 352 nm
- absorption maximum (in CN(C)C=O): 346 nm
- absorption maximum (in CO): 349 nm
- absorption maximum (in Cc1ccccc1): 358 nm
- absorption maximum (in ClC(Cl)Cl): 352 nm
- absorption maximum (in ClCCl): 352 nm

Compound: c1cc2ccc1-c1ccc(cc1)-c1sc(c3c1OCCO3)-c1ccc(cc1)-c1ccc(cc1)-c1sc(c3c1OCCO3)-c1ccc(cc1)-c1ccc(cc1)-c1sc-2c2c1OCCO2
- absorption maximum (in C1CCOC1): 371 nm

Compound: COc1ccc(/C=C/C2=NC(=C\c3ccncc3)/C(=O)N2C)cc1
- absorption maximum (in C1COCCO1): 422 nm
- absorption maximum (in CC#N): 428 nm
- absorption maximum (in CCO): 433 nm
- absorption maximum (in CCOC(C)=O): 423 nm
- absorption maximum (in O): 425 nm

Compound: CN(C)c1ccc(C2=Cc3cc(Cl)nc[n+]3[B-](F)(F)O2)cc1
- absorption maximum (in C1CCOC1): 451 nm
- absorption maximum (in CC#N): 452 nm
- absorption maximum (in CCCCCC): 444 nm
- absorption maximum (in Cc1ccccc1): 453 nm
- absorption maximum (in ClC(Cl)Cl): 460 nm
- absorption maximum (in ClCCl): 459 nm

Compound: CC(C)(C)c1ccc2c(c1)c1cc(C(C)(C)C)ccc1n2-c1ccc(-c2nc3cc(C#N)c(C#N)cc3nc2-c2ccc(-n3c4ccc(C(C)(C)C)cc4c4cc(C(C)(C)C)ccc43)cc2)cc1
- absorption maximum (in Cc1ccccc1): 443 nm

Compound: CN(C)c1ccc(C#Cc2cc(C#Cc3ccc(C(F)(F)F)cc3)c3ccc4c(C#Cc5ccc(C(F)(F)F)cc5)cc(C#Cc5ccc(N(C)C)cc5)c5ccc2c3c54)cc1
- absorption maximum (in ClCCl): 506 nm

Compound: CC1(C)C(/C=C/C2=C(c3ccc(C(=O)O)cc3)C(=C/C=C3/N(CCCS(=O)(=O)[O-])c4ccc5ccccc5c4C3(C)C)/CCC2)=[N+](CCCS(=O)(=O)[O-])c2ccc3ccccc3c21
- absorption maximum (in CO): 800 nm

Compound: Nc1cc2ccc3cccc4ccc(c1)c2c34
- absorption maximum (in CC#N): 338 nm
- absorption maximum (in CCCCOCCCC): 338 nm
- absorption maximum (in CO): 336 nm

Compound: ClP1(Cl)=NP(Cl)(Cl)=NP(Cl)(Oc2ccc3ccc4cccc5ccc2c3c45)=N1 (stereo unspecified)
- absorption maximum (in ClCCl): 343 nm

Compound: F[B-]1(F)n2c(ccc2-c2ccccc2)C(c2ccc(I)cc2)=C2C=CC(c3ccccc3)=[N+]21
- absorption maximum (in ClC(Cl)Cl): 555 nm

Compound: O=c1c2cc(F)c(O)cc2sc2cc(O)c(F)cc12
- absorption maximum (in CCO): 377 nm

Further lines, results first:

- absorption maximum (in ClCCl): 616 nm
Compound: CCCCC1C(=O)c2cc(Oc3ccc(C(C)(C)C)cc3)c3c4c(Oc5ccc(C(C)(C)C)cc5)cc5c6c(cc(Oc7ccc(C(C)(C)C)cc7)c(c7c(Oc8ccc(C(C)(C)C)cc8)cc(c2c37)C1=O)c64)C1=C(C5=O)c2ccc3ccccc3[n+]2[B-](F)(F)O1 (stereo unspecified)

- absorption maximum (in ClC(Cl)Cl): 617 nm
Compound: C[N+]1=c2ccc3c(c2C(C)(C)CC1)Oc1cc2c(cc1C=3c1ccccc1C(=O)O)C(c1ccccc1C(=O)O)=c1ccc3c(c1O2)C(C)(C)CC[N+]=3C

- absorption maximum (in C1CCOC1): 415 nm
Compound: COc1ccc(-c2cc3c(s2)-c2sc(-c4ccc(OC)cc4)cc2P(c2ccccc2)(c2ccccc2)=[O+][B-]3(c2c(C)cc(C)cc2C)c2c(C)cc(C)cc2C)cc1

- absorption maximum (in CC#N): 377 nm
- absorption maximum (in CCO): 386 nm
Compound: CC1(C)CC(=O)c2cc(F)cc(F)c2N1

- absorption maximum (in CC#N): 410 nm
- absorption maximum (in CCCCCCC): 393 nm
- absorption maximum (in CO): 413 nm
- absorption maximum (in O): 418 nm
Compound: O=[N+]([O-])c1ccc(/C=C/c2c[nH]c3ccccc23)cc1

- absorption maximum (in CCCCCC): 492 nm
- absorption maximum (in CO): 486 nm
- absorption maximum (in ClCCl): 488 nm
Compound: CC1=CC(C)=[N+]2C1=C(C)c1cccn1[B-]2(F)F

- absorption maximum (in ClCCl): 409 nm
Compound: CCN(CC)c1ccc2cc(-c3ccc(-c4ccc(-c5cc6ccccc6oc5=O)cc4)cc3)c(=O)oc2c1

- absorption maximum (in c1cc(-c2cccc(-n3c4ccccc4c4ccccc43)c2)cc(-n2c3ccccc3c3ccccc32)c1): 387.78 nm
Compound: c1ccc(-c2nc(-c3ccccc3)nc(-c3ccc(-c4ccc5c(c4)C4(c6ccccc6-c6ccccc64)c4ccccc4N5c4ccccc4)cc3)n2)cc1

- absorption maximum (in CCO): 568 nm
- absorption maximum (in ClCCl): 570 nm
Compound: Ic1ccc(-c2c3ccc(=[N+]4CCCCC4)cc-3oc3cc(N4CCCCC4)ccc23)cc1

- absorption maximum (in ClCCl): 737 nm
Compound: F[B-]1(F)n2c(-c3ccccc3)c3ccc4ccccc4c3c2N=C2c3c(ccc4ccccc34)C(c3ccccc3)=[N+]21

- absorption maximum (in ClCCl): 303 nm
Compound: CC(C)(C)c1ccc2ccc3cc(-c4ccc5c(-c6ccc7c(ccc8ccc(C(C)(C)C)cc87)c6)cc6c7cc(-c8ccc9c(ccc%10ccc(C(C)(C)C)cc%109)c8)ccc7c(-c7ccc8c(ccc9ccc(C(C)(C)C)cc98)c7)cc6c5c4)ccc3c2c1

- absorption maximum (in CC#N): 724 nm
- absorption maximum (in CCO): 710 nm
- absorption maximum (in CO): 714 nm
- absorption maximum (in ClC(Cl)Cl): 730 nm
Compound: C[N+]1=C(/C=C/C2=C3Oc4c(cc5c6c4CCCN6CCC5)C(c4ccccc4C(=O)O)=C3CCC2)C(C)(C)c2ccccc21

- absorption maximum (in C1CCOC1): 480 nm
Compound: COc1cc2oc(=O)c3c4ccc(N(C)C)cc4c4ccc5cccc6c(c1)c2c3c4c56

- absorption maximum (in ClCCl): 301 nm
Compound: C[Si](C)(C)c1ccc(-c2nc3ccccc3n2-c2ccccc2)cc1

- absorption maximum (in ClCCl): 378 nm
Compound: CN(C)c1ccc(-c2cc(-c3ccc(N(C)C)cc3)ncn2)cc1

- absorption maximum (in C1CCOC1): 332.68 nm
Compound: c1ccc(-c2nc(-c3ccccc3)nc(-n3c4ccccc4c4cc(-n5c6ccccc6c6ccccc65)cc(-n5c6ccccc6c6ccccc65)c43)n2)cc1

- absorption maximum (in C1COCCO1): 281.6 nm
- absorption maximum (in CC#N): 279.69 nm
Compound: N#Cc1cc2ccccc2[nH]1

- absorption maximum (in CCOC(C)=O): 344 nm
Compound: CCn1c(-c2ccc(-c3ccc4ccc5cccc6ccc3c4c56)cc2)c(-c2ccc3ccccc3c2)c(-c2ccc3ccccc3c2)c1-c1ccc(-c2ccc3ccc4cccc5ccc2c3c45)cc1

- absorption maximum (in C1CCCCC1): 336 nm
- absorption maximum (in C1COCCO1): 337 nm
- absorption maximum (in CC#N): 334 nm
- absorption maximum (in CC(C)(C)O): 339 nm
- absorption maximum (in CC(C)O): 339 nm
- absorption maximum (in CCCCCC): 334 nm
- absorption maximum (in CCCCO): 341 nm
- absorption maximum (in CCOC(C)=O): 335 nm
- absorption maximum (in CN(C)C=O): 340 nm
- absorption maximum (in CO): 339 nm
- absorption maximum (in ClCCl): 339 nm
- absorption maximum (in O): 340 nm
Compound: O=C1Nc2ccccc2/C1=C/C(=O)c1ccc(Cl)cc1Cl

- absorption maximum (in ClCCl): 642 nm
Compound: CC(C)[Si](C#Cc1c2cc3ccccc3cc2c(C#C[Si](C)(C)C)c2cc3ccccc3cc12)(C(C)C)C(C)C

- absorption maximum (in CCO): 556 nm
- absorption maximum (in ClCCl): 554 nm
Compound: Cc1ccccc1-c1c2ccc(=[N+]3CCOCC3)cc-2oc2cc(N3CCOCC3)ccc12

- absorption maximum (in C1COCCO1): 411 nm
- absorption maximum (in CC#N): 408 nm
- absorption maximum (in CCO): 411 nm
- absorption maximum (in CCOC(C)=O): 408 nm
- absorption maximum (in O): 408 nm
Compound: CN1C(=O)/C(=C/c2ccncc2)N=C1/C=C/c1ccccc1

- absorption maximum (in CC#N): 310 nm
Compound: C(#Cc1ccccc1C#Cc1ccccc1)c1ccccc1

- absorption maximum (in ClCCl): 345 nm
Compound: c1ccc(-n2c3ccccc3c3cc(-c4cccc(-n5c6ccccc6c6ncccc65)c4)ccc32)cc1

- absorption maximum (in CCCCCC): 435 nm
- absorption maximum (in ClCCl): 435 nm
Compound: CC(C)[Si](C#Cc1ccc(C#C[Si](C(C)C)(C(C)C)C(C)C)c2nc3cc4c(cc3nc12)[C@H]1c2ccccc2[C@@H]4c2ccccc21)(C(C)C)C(C)C
